Measurements reported in PubChem BioAssay (NCI).
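Method: 48-hour compound exposure of cells in 96-well plates, five concentrations, linear interpolation of endpoints. GI50 = concentration required for 50% inhibition of growth. TGI: concentration producing complete growth inhibition.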

Key:
Experiment in all cases: NCI tumour cell line growth inhibition, 48 h
SF-539 CNS = tested on: SF-539 CNS
KM12 colon = tested on: KM12 colon
K-562 leukemia = tested on: K-562 leukemia
SN12C renal = tested on: SN12C renal
HOP-62 NSCLC = tested on: HOP-62 NSCLC
NCI-H23 lung = tested on: NCI-H23 lung
IGROV1 ovarian = tested on: IGROV1 ovarian
NCI-H226 lung = tested on: NCI-H226 lung
SK-MEL-5 melanoma = tested on: SK-MEL-5 melanoma

SMILES | TGI (SF-539 CNS) [µM] | TGI (KM12 colon) [µM] | TGI (K-562 leukemia) [µM] | TGI (SN12C renal) [µM] | TGI (HOP-62 NSCLC) [µM] | TGI (NCI-H23 lung) [µM] | TGI (IGROV1 ovarian) [µM] | TGI (NCI-H226 lung) [µM] | TGI (SK-MEL-5 melanoma) [µM] | GI50 (SF-539 CNS) [µM] | GI50 (K-562 leukemia) [µM] | GI50 (SN12C renal) [µM] | GI50 (HOP-62 NSCLC) [µM] | GI50 (NCI-H23 lung) [µM] | GI50 (IGROV1 ovarian) [µM] | GI50 (NCI-H226 lung) [µM]
CN(C)/N=N/c1nc2c(c(=O)n(C)c(=O)n2C)n1CC1CO1 (stereo not given) | 22.5 | 50.7 | 60.2 | 46.7 | 34.4 | 25.1 | 29.9 | 38.3 | 25.5 |  |  |  |  |  |  | 
CC(C)=C/C(CC(O)(C(F)(F)F)C(F)(F)F)=N\O | > 100 | > 100 | > 100 | > 100 | > 100 | > 100 | > 100 | > 100 | > 100 |  |  |  |  |  |  | 
CC1=NN2C(=N)/C(=C/c3ccc(F)cc3)C(=O)N=C2S1 | > 100 | > 100 | > 100 | > 100 | > 100 | > 100 | > 100 | > 100 | > 100 |  |  |  |  |  |  | 
O=c1c2c3c(sc2nc2n1N=C(c1ccc(Br)cc1)CS2)CCCC3 | > 100 | > 100 | > 100 | > 100 | > 100 | > 100 | > 100 | > 100 |  |  |  |  |  |  |  | 
O=C(NC(C(F)(F)F)(C(F)(F)F)P(=O)(Cc1ccccc1)Cc1ccccc1)C(C(F)(F)F)C(F)(F)F | 43.6 | 37.7 | > 100 | 38.4 | 41.6 | 40.8 | 36.1 | 32.4 | 29.1 |  |  |  |  |  |  | 
CC(C)=CCc1c(O)cc2oc(-c3ccc(O)cc3O)cc(=O)c2c1O | 58.7 | 50.8 | > 59.2 | > 69.1 | > 92.8 | 58.2 | > 100 | > 100 | 38.7 |  |  |  |  |  |  | 
Cn1c(=O)cc(NNc2ccc(Cl)c(Cl)c2)[nH]c1=O | 39.7 | 30.2 | 23.1 | 21.2 | 31.3 | 90.7 | 23.5 | 55.9 | 19.3 |  |  |  |  |  |  | 
CSc1ccc(/C=C2\N=C(c3ccccc3)N(c3nc4cc(Cl)c(F)cc4s3)C2=O)cc1 | 82.6 | > 100 | > 100 | > 100 | 98.7 |  | > 100 |  | > 100 |  |  |  |  |  |  | 
CS(=O)(=O)Nc1ccc2ccccc2c1 | > 100 | > 100 | > 100 | > 100 | > 100 | > 100 | > 100 | > 100 | > 100 |  |  |  |  |  |  | 
CC1(C)C=C(/C=C2/N(S(=O)(=O)C(F)(F)F)C(/C=C3/N(S(=O)(=O)C(F)(F)F)C(C)(C#N)CC3(C)C)=CC2(C)C)N=C1/C=C1/CC(C)(C)C(=O)N1 (stereo not given) | 84.5 | > 100 | > 100 | > 100 | > 100 | > 100 | 62.9 | > 100 | 71.6 |  |  |  |  |  |  | 
NC(=O)c1ccc[n+](C2=C([O-])c3ccccc3C(=O)/C2=N\S(=O)(=O)c2ccccc2)c1 | 32.2 | 26.7 | > 100 | 30.9 | 33 | 30.6 | 24.5 | 28.9 | 21.3 |  |  |  |  |  |  | 
CNC(=S)N1CCN(C(C)=O)C1=S | 52.8 | > 100 | > 100 | > 100 | > 100 | > 100 | > 100 | 62 | > 100 |  |  |  |  |  |  | 
NC(=O)C1CCN(Cc2c(Cl)c(Cl)c(CN3CCC(C(N)=O)CC3)c(Cl)c2Cl)CC1 | 70.7 | > 100 | > 100 | > 100 | 39.7 | > 100 |  | > 100 | > 100 |  |  |  |  |  |  | 
CC/C=N\N1C(N)=C(C#N)C(C#N)(C#N)C1CC (stereo not given) | 80.8 | > 100 | > 100 | > 100 | > 100 | > 100 | > 100 | > 100 | > 100 |  |  |  |  |  |  | 
C=C(C)[C@H]1CC23C(=O)[C@@](C)(C[C@H]2C1(C)C)C(=O)C(C(=O)C(C)C)=C3O |  | 41.1 | 49.3 | 32.9 | 40.4 | 43 | 32.7 | 30.3 | 31.5 |  |  |  |  |  |  | 
CCn1ncc2c(=O)n3ncn(-c4ccc(Br)cc4)c3nc21 |  | > 100 | > 100 | > 100 | > 100 | > 100 | > 100 | > 100 | > 100 |  |  |  |  |  |  | 
Nc1c(N2CCOCC2)c(=O)nc2[nH]/c(=C\c3ccccc3O)c(=O)n12 | > 100 | > 100 | > 100 | > 100 |  | > 100 | > 100 | > 100 | > 100 |  |  |  |  |  |  | 
O=C1CSC(c2c[nH]c3ccccc23)N1c1ccc(Cl)cc1Cl (stereo not given) | > 100 | > 100 | > 100 | > 100 | > 100 | > 100 | > 100 |  | > 100 |  |  |  |  |  |  | 
O=C(c1ccco1)N(C(=O)N1CCC(c2ccccc2)CC1)c1ccccc1 | > 100 | 85 | > 100 | > 100 |  | > 100 | > 100 | > 100 | 51.5 |  |  |  |  |  |  | 
O=C1c2cc3c(cc2-c2c1c1ccc(Cl)cc1c(=O)n2CCCn1ccnc1)OCO3 | 0.0649 |  | 12.6 | > 100 | > 100 | 0.317 | > 100 | > 100 |  | < 0.01 | 0.0229 | < 0.01 | < 0.01 | < 0.01 | 0.0656 | 0.0186
Cc1cc(S(=O)(=O)N=C2Nc3cccc4cccc(c34)N2)c(S)cc1Cl | > 100 | > 100 | > 100 |  |  |  | > 100 | > 100 | > 100 |  |  |  |  |  |  | 
CC[C@H](NC(=O)OC(C)(C)C)C(=O)NCP(=O)(OCc1ccc([N+](=O)[O-])cc1)OCc1ccc([N+](=O)[O-])cc1 | 90 | > 100 |  | > 100 | > 100 | > 100 | > 100 | > 100 | 26.4 |  |  |  |  |  |  | 
Cc1ccc(C)c(COCCOCn2cc(N3CCOCC3)c(=O)[nH]c2=O)c1 | > 100 | > 100 | > 100 | > 100 |  | > 100 | > 100 | > 100 |  |  |  |  |  |  |  | 
CCOC(=O)C(NC(=O)c1cccc(Cl)c1)(Nc1cccc(C)c1)C(F)(F)F (stereo not given) | 32.7 | 30.1 | > 100 | 50.8 | 36.2 |  | 34.8 | 30.7 | 30.9 |  |  |  |  |  |  | 
